Structures can show the parent of a compound that is named as a salt. Where two headings read alike, the source gives them in different places.
Tests used:
[1] = molecular target: T1, cloned human hERG channel (Homo sapiens, UniProt Q12809); experiment: In vitro effect on hERG channels, whole-cell patch clamp in HEK cells; assay type: cell-based; details: 37 °C, read-out: IhERG, 0.1 HZ, IC50
T1 construct: expressed in transfected cells; host or cells: HEK cells
Description: Electrophysiological measurements of hERG current were made in vitro to assess the hERG block produced by certain compounds disclosed herein. hERG currents were measured in HEK cells expressing the cloned human hERG channel using the whole-cell variant of the patch clamp method. Experiments were performed at 37±1° C. An Axopatch 1-B amplifier (Axon Instruments, Foster City, Calif.) was used for whole-cell voltage clamping. Creation of voltage clamp pulses and data acquisition was controlled by a PC running pClamp software (version 9.2, Axon Instruments). After rupture of the cell membrane (entering whole-cell mode), current kinetics and amplitudes were allowed to stabilize for 3-5 minutes as the cell was dialyzed with internal solution and paced at 0.1 Hz. Cells were depolarized to +10 mV for 500 ms from a holding potential of −75 mV and peak hERG current was measured as the maximum outward deflection of the tail current elicited upon return to −40 mV (pacing rate=0.1 Hz). Four concentrations of each test compound were added to the cell in a cumulative manner starting with the lowest test concentration. Each cell served as its own control and data are presented as % reduction of current amplitude achieved in the presence of drug.
A nonlinear curve fitting routine was utilized to fit a three-parameter Hill equation to the results using MicroCal Origin, version 6.0 software. The equation was: […]

[2] = molecular target: T2, human norepinephrine transporter (hNET) (Homo sapiens, UniProt P23975); experiment: Binding affinity to human norepinephrine transporter (hNET), [3H]Nisoxetine displacement; details: membranes from MDCK cells expressing hNET, [3H]Nisoxetine 2 nM, read-out: NET binding, Ki
T2 construct: expressed in transfected cells; host or cells: MDCK cells
Description: The binding affinities of certain compounds disclosed herein to the hNET were measured using competitive radioligand displacement assays in membranes prepared from MDCK cells that express the human norepinephrine transporter. Competition binding experiments were conducted by incubating hNET membranes with [^3H] Nisoxetine (2 nM), in the presence of increasing concentrations of test compounds. Incubations were carried out at 4° C. for 60 minutes in buffer containing 50 mM Tris HCl, 120 mM NaCl and 5 mM KCl (pH 7.4). The binding reaction was terminated by rapid filtration, membranes were washed and membrane-bound radioactivity was measured using a scintillation counter. Non-specific binding was measured in the presence of excess (10 μM) clomipramine as the unlabelled ligand and this value was subtracted from the total binding to yield the specific binding at each test compound concentration.
IC50 values were obtained from non-linear regression analysis of concentration-versus specific binding plots. Ki values were calculated from the IC50 values using the Cheng Prusoff correction and experimentally determined […] values for the radioligand under these assay conditions.

T2 sequence (P23975 whole entry): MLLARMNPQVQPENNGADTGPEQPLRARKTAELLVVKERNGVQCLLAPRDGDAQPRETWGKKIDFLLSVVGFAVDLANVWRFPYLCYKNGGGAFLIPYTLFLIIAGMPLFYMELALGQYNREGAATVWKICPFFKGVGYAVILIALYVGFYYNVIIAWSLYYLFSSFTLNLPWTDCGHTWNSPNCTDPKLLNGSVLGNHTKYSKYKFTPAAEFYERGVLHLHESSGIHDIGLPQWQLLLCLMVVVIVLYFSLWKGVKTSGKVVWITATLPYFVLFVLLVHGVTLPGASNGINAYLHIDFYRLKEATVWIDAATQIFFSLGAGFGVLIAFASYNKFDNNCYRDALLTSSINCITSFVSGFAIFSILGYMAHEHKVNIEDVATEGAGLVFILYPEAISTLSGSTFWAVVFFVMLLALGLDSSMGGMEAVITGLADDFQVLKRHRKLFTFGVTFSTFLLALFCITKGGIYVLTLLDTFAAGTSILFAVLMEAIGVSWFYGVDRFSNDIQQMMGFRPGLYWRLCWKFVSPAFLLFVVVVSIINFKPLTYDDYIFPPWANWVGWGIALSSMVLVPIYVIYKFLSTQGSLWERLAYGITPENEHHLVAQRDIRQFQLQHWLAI
T1 sequence (Q12809 whole entry): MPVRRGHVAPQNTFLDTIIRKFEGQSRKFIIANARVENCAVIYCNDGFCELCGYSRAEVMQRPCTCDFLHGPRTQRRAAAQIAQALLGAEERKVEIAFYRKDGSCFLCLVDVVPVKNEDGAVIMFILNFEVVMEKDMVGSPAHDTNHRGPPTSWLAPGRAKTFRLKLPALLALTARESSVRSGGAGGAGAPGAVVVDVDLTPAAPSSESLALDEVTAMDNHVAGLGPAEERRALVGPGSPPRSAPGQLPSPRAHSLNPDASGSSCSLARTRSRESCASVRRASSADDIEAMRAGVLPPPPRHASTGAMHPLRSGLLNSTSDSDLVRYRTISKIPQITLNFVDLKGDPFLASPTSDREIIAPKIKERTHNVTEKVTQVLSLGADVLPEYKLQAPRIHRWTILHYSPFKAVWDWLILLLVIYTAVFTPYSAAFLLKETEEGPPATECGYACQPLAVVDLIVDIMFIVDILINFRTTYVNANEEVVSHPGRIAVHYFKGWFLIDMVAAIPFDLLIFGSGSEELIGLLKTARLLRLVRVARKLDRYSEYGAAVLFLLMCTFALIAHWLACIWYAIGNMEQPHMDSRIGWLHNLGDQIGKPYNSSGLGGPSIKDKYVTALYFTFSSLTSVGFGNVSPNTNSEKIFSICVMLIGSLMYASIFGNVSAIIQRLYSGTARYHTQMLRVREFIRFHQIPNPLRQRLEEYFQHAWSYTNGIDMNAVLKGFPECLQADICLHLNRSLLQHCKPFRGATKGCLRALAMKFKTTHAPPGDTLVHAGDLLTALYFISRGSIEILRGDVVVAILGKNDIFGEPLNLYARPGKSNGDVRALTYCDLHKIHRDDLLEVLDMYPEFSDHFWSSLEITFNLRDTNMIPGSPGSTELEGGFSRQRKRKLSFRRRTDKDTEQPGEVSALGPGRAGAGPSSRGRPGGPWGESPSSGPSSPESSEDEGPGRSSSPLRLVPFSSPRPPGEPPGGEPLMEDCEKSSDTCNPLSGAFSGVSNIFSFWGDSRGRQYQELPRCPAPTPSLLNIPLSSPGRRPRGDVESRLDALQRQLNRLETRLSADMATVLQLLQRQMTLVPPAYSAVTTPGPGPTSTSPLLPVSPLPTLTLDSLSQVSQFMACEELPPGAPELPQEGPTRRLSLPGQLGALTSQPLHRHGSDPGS

Ki ([2]; Table 2) [µM]	Ki ([2]; Table 3) [µM]	Ki ([2]; Table 1) [µM]	Compound	IC50 ([1]; Table 2, pacing rate 0.1 Hz) [µM]	IC50 ([1]; Table 3, pacing rate 0.1 Hz) [µM]
4.45			COCCO[C@@H]1Cc2ccccc2/C(=C\CCN(C)C)c2ccccc21 [(R)-5-(3-dimethylamino-propylidene)-10-OmPEG1-10,11-dihydro-5H-dibenzo[a,d]cyclohept-E-ene trifluoroacetate salt]	12.1	
	27.4		COCCOCCOCCOCCO[C@H]1Cc2ccccc2/C(=C/CCN(C)C)c2ccccc21 [(S)-5-(3-dimethylamino-propylidene)-10-OmPEG4-10,11-dihydro-5H-dibenzo[a,d]cyclohept-Z-ene trifluoroacetate salt]		11.5
	6.28		CN(C)CC/C=C1/c2ccccc2C[C@@H](O)c2ccccc21 [(R)-5-(3-dimethylamino-propylidene)-10,11-dihydro-5H-dibenzo[a,d]cyclohept-Z-en-10-ol, reference compound]		4.1
		0.16	CN(C)CC/C=C1\c2ccccc2CCc2cc(O)ccc21 [(E)-5-(3-(dimethylamino)propylidene)-10,11-dihydro-5H-dibenzo[a,d][7]annulen-2-ol, reference compound]		
	22.1		COCCOCCOCCOCCOCCOCCO[C@H]1Cc2ccccc2/C(=C/CCN(C)C)c2ccccc21 [(S)-5-(3-dimethylamino-propylidene)-10-OmPEG6-10,11-dihydro-5H-dibenzo[a,d]cyclohept-Z-ene trifluoroacetate salt]		38.3
	0.97		CN(C)CC/C=C1/c2ccccc2C[C@H](O)c2ccccc21 [(S)-5-(3-Dimethylamino-propylidene)-10,11-dihydro-5H-dibenzo[a,d]cyclohept-Z-en-10-ol, reference compound]		7.2
	31.3		COCCOCCOCCOCCOCCOCCO[C@@H]1Cc2ccccc2/C(=C/CCN(C)C)c2ccccc21 [(R)-5-(3-dimethylamino-propylidene)-10-OmPEG6-10,11-dihydro-5H-dibenzo[a,d]cyclohept-Z-ene trifluoroacetate salt]		18.9
	2.99		COCCOCCOCCOCCOCCOCCOCCOCCO[C@H]1Cc2ccccc2/C(=C/CCN(C)C)c2ccccc21 [(S)-5-(3-dimethylamino-propylidene)-10-OmPEG8-10,11-dihydro-5H-dibenzo[a,d]cyclohept-Z-ene trifluoroacetate salt]		32.8
49.1			COCCOCCO[C@@H]1Cc2ccccc2/C(=C\CCN(C)C)c2ccccc21 [(R)-5-(3-dimethylamino-propylidene)-10-OmPEG2-10,11-dihydro-5H-dibenzo[a,d]cyclohept-E-ene trifluoroacetate salt]	14	
	30.6		COCCOCCOCCOCCO[C@@H]1Cc2ccccc2/C(=C/CCN(C)C)c2ccccc21 [(R)-5-(3-dimethylamino-propylidene)-10-OmPEG4-10,11-dihydro-5H-dibenzo[a,d]cyclohept-Z-ene trifluoroacetate salt]		21.5
	4.37		COCCOCCOCCOCCOCCOCCOCCOCCO[C@@H]1Cc2ccccc2/C(=C/CCN(C)C)c2ccccc21 [(R)-5-(3-dimethylamino-propylidene)-10-OmPEG8-10,11-dihydro-5H-dibenzo[a,d]cyclohept-Z-ene trifluoroacetate salt]		> 100
